Results reported in patent publication US8987258B2 (priority 2008, dated 2015).

Biological target: T1, SIRT1 (Homo sapiens, UniProt Q96EB6)
T1 sequence (Q96EB6 1-747): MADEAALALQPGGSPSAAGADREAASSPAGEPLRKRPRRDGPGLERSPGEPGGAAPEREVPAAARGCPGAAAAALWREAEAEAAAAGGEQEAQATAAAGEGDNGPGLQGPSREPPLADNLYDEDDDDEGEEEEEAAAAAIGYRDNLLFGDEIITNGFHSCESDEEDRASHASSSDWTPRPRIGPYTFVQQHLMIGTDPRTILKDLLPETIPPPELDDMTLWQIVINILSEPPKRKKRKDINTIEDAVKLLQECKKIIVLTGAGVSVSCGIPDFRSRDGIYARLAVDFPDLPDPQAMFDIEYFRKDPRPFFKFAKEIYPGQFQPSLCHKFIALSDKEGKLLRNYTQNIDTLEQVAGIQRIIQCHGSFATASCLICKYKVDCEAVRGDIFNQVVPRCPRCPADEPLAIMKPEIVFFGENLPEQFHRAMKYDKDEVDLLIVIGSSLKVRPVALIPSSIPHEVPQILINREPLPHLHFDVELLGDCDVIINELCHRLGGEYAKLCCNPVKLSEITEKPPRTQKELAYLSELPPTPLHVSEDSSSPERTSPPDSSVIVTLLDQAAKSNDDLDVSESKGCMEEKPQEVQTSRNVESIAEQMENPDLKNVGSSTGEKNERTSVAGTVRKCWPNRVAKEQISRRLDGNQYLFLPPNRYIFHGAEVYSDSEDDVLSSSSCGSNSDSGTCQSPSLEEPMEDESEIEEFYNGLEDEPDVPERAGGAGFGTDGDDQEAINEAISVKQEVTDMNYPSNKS
Test: Mass spectrometry based SIRT1 deacetylase activation assay
Format: biochemical
Conditions: for EC1.5 μM: 0.5 μM peptide substrate, 120 μM βNAD+, 10 nM SIRT1, 25 min, 25° C.; for Emax: 25 min, mass spectrometry assay, read-out: % Fold Act. (percent maximum fold activation)
Source text: A mass spectrometry based assay was used to identify modulators of SIRT1 activity. The mass spectrometry based assay utilizes a peptide having 20 amino acid residues as follows: Ac-EE-K(biotin)-GQSTSSHSK(Ac)NleSTEG-K(5TMR)-EE-NH2 (SEQ ID NO: 1) wherein K(Ac) is an acetylated lysine residue and Nle is a norleucine. The peptide is labeled with the fluorophore 5TMR (excitation 540 nm/emission 580 nm) at the C-terminus. The sequence of the peptide substrate is based on p53 with several modifications. In addition, the methionine residue naturally present in the sequence was replaced with the norleucine because the methionine may be susceptible to oxidation during synthesis and purification.
The mass spectrometry assay is conducted as follows: 0.5 μM peptide substrate and 120 μM βNAD^+ is incubated with 10 nM SIRT1 for 25 minutes at 25° C. in a reaction buffer (50 mM Tris-acetate pH 8, 137 mM NaCl, 2.7 mM KCl, 1 mM MgCl2, 5 mM DTT, 0.05% BSA). Test compounds may be added to the reaction as described above. […] After the 25 minute incubation with SIRT1, 10 μL of 10% formic acid is added to stop the reaction. Reactions are sealed and frozen for later mass spec analysis. Determination of the mass of the substrate peptide allows for precise determination of the degree of acetylation (i.e. starting material) as compared to deacetylated peptide (product).
A control for inhibition of sirtuin activity is conducted by adding 1 μL of 500 mM nicotinamide as a negative control at the start of the reaction (e.g., permits determination of maximum sirtuin inhibition). A control for activation of sirtuin activity is conducted using 10 nM of sirtuin protein, with 1 μL of DMSO in place of compound, to determine the amount of deacetylation of the substrate at a given timepoint within the linear range of the assay. This timepoint is the same as that used for test compounds and, within the linear range, the endpoint represents a change in velocity.
For the above assay, SIRT1 protein was expressed and purified as follows. […] The protein was expressed by induction with 1 mM IPTG as an N-terminal His-tag fusion protein at 18° C. overnight and harvested at 30,000×g. Cells were lysed with lysozyme in lysis buffer (50 mM Tris-HCl, 2 mM Tris[2-carboxyethyl]phosphine (TCEP), 10 μM ZnCl2, 200 mM NaCl) and further treated with sonication for 10 min for complete lysis. The protein was purified over a Ni-NTA column (Amersham) and fractions containing pure protein were pooled, concentrated and run over a sizing column (Sephadex S200 26/60 global). The peak containing soluble protein was collected and run on an Ion-exchange column (MonoQ). Gradient elution (200 mM-500 mM NaCl) yielded pure protein. This protein was concentrated and dialyzed against dialysis buffer (20 mM Tris-HCl, 2 mM TCEP) overnight. The protein was aliquoted and frozen at −80° C. until further use.

EC1.5 μM	Emax	SMILES
C (EC1.5>25 μM)	< 200%	O=C(Nc1cccc2c(=O)cc(-c3cc(F)ccc3Cl)oc12)c1cscn1 [Compound 301]
B (EC1.5 1-25 μM)	> 200%	O=C(Nc1cccc2c(=O)cc(-c3c(Cl)cccc3Cl)oc12)c1cnccn1 [Compound 302]
B (EC1.5 1-25 μM)	> 200%	O=C(Nc1cccc2c(=O)cc(-c3c(Cl)cccc3Cl)oc12)c1cscn1 [Compound 303]
C (EC1.5>25 μM)	< 200%	Cc1cnc(NC(=O)c2cccc3c(=O)cc(-c4ccccc4S(C)(=O)=O)oc23)s1 [Compound 304]
C (EC1.5>25 μM)	< 200%	Cc1cnc(NC(=O)c2cccc3c(=O)cc(-c4cccnc4C(F)(F)F)oc23)s1 [Compound 305, N-(5-methylthiazol-2-yl)-4-oxo-2-(2-(trifluoromethyl)pyridin-3-yl)-4H-chromene-8-carboxamide]
B (EC1.5 1-25 μM)	> 200%	O=C(Nc1cccc2c(=O)cc(-c3cccnc3C(F)(F)F)oc12)c1cnccn1 [Compound 306, N-(4-oxo-2-(2-(trifluoromethyl)pyridin-3-yl)-4H-chromen-8-yl)pyrazine-2-carboxamide]
A (EC1-5<1.0)	> 200%	O=C(Nc1cccc2c(=O)cc(-c3cccnc3C(F)(F)F)oc12)c1cscn1 [Compound 307]
B (EC1.5 1-25 μM)	> 200%	O=C(Nc1cccc2c(=O)cc(-c3cnccc3C(F)(F)F)oc12)c1cnccn1 [Compound 308]
B (EC1.5 1-25 μM)	> 200%	O=C(Nc1cccc2c(=O)cc(-c3cnccc3C(F)(F)F)oc12)c1cscn1 [Compound 309]
B (EC1.5 1-25 μM)	< 200%	Cc1cnc(NC(=O)c2cccc3c(=O)cc(-c4cnccc4C(F)(F)F)oc23)s1 [Compound 310]
B (EC1.5 1-25 μM)	> 200%	O=C(Nc1cccc2c(=O)cc(-c3ccccc3C(F)(F)F)oc12)c1cccc(N2CCOCC2)c1 [Compound 311]
B (EC1.5 1-25 μM)	> 200%	O=C(Nc1cccc2c(=O)cc(-c3ccccc3C(F)(F)F)oc12)c1cccc(N2CCCC2)c1 [Compound 312]
B (EC1.5 1-25 μM)	> 200%	O=C1CCC(C(=O)Nc2cccc3c(=O)cc(-c4ccccc4C(F)(F)F)oc23)N1 (centres unmarked) [Compound 313, 5-oxo-N-(4-oxo-2-(2-(trifluoromethyl)phenyl)-4H-chromen-8-yl)pyrrolidine-2-carboxamide]
A (EC1-5<1.0)	> 200%	O=C(Nc1cccc2c(=O)cc(-c3ccccc3C(F)(F)F)oc12)c1cccc(CN2CCOCC2)n1 [Compound 315]
A (EC1-5<1.0)	> 200%	O=C(Nc1cccc2c(=O)cc(-c3ccccc3C(F)(F)F)oc12)c1cncc(N2CCOCC2)n1 [Compound 316]
B (EC1.5 1-25 μM)	< 200%	CN1CCCC1C(=O)Nc1cccc2c(=O)cc(-c3ccccc3C(F)(F)F)oc12 (centres unmarked) [Compound 317]
A (EC1-5<1.0)	> 200%	O=C(Nc1cccc2c(=O)cc(-c3ccccc3C(F)(F)F)oc12)c1cccc(OCC(O)CO)n1 (centres unmarked) [Compound 318]
A (EC1-5<1.0)	> 200%	O=C(Nc1cccc2c(=O)cc(-c3ccccc3Cl)oc12)c1cncc(N2CCOCC2)n1 [Compound 319]
A (EC1-5<1.0)	> 200%	O=C(Nc1cccc2c(=O)cc(-c3ccccc3C(F)(F)F)oc12)c1cccc(CN2CCCC2)n1 [Compound 320]
B (EC1.5 1-25 μM)	> 200%	O=C(Nc1cccc2c(=O)cc(-c3ccccc3C(F)(F)F)oc12)c1cccnc1OCC(O)CO (centres unmarked) [Compound 321]
A (EC1-5<1.0)	> 200%	O=C(Nc1cccc2c(=O)cc(-c3ccccc3C(F)(F)F)oc12)c1cccc(N2CCOCC2)n1 [Compound 322]
A (EC1-5<1.0)	> 200%	O=C(Nc1cccc2c(=O)cc(-c3ccccc3C(F)(F)F)oc12)c1cccc(N2CCCC2)n1 [Compound 323]

More lines, now with the values behind:

SMILES	EC1.5 μM	Emax
O=C(Nc1cccc2c(=O)cc(-c3ccccc3C(F)F)oc12)c1cscn1 [Compound 283]	A (EC1-5<1.0)	> 200%
Cc1cnc(NC(=O)c2cccc3c(=O)cc(-c4ccccc4C(F)F)oc23)s1 [Compound 284]	C (EC1.5>25 μM)	< 200%
Cc1cnc(NC(=O)c2cccc3c(=O)cc(-c4ccccc4C(C)C)oc23)s1 [Compound 285]	C (EC1.5>25 μM)	< 200%
CC(C)c1ccccc1-c1cc(=O)c2cccc(NC(=O)c3cnccn3)c2o1 [Compound 286]	A (EC1-5<1.0)	> 200%
CC(C)c1ccccc1-c1cc(=O)c2cccc(NC(=O)c3cscn3)c2o1 [Compound 287]	B (EC1.5 1-25 μM)	> 200%
O=C(Nc1cccc2c(=O)cc(-c3cccc(F)c3F)oc12)c1cnccn1 [Compound 288]	B (EC1.5 1-25 μM)	< 200%
O=C(Nc1cccc2c(=O)cc(-c3cccc(F)c3F)oc12)c1cscn1 [Compound 289]	C (EC1.5>25 μM)	< 200%
O=C(Nc1cccc2c(=O)cc(-c3c(F)cccc3F)oc12)c1cnccn1 [Compound 290]	C (EC1.5>25 μM)	< 200%
O=C(Nc1cccc2c(=O)cc(-c3c(F)cccc3F)oc12)c1cscn1 [Compound 291]	B (EC1.5 1-25 μM)	< 200%
O=C(Nc1cccc2c(=O)cc(-c3cc(F)ccc3F)oc12)c1cnccn1 [Compound 292]	C (EC1.5>25 μM)	< 200%
O=C(Nc1cccc2c(=O)cc(-c3cc(F)ccc3F)oc12)c1cscn1 [Compound 293]	C (EC1.5>25 μM)	< 200%
Cc1cnc(NC(=O)c2cccc3c(=O)cc(-c4ccccc4OC(F)F)oc23)s1 [Compound 294]	B (EC1.5 1-25 μM)	< 200%
Cc1cnc(NC(=O)c2cccc3c(=O)cc(-c4cccc(F)c4F)oc23)s1 [Compound 295]	C (EC1.5>25 μM)	< 200%
O=C(Nc1cccc2c(=O)cc(-c3c(F)cccc3Cl)oc12)c1cnccn1 [Compound 296]	A (EC1-5<1.0)	> 200%
O=C(Nc1cccc2c(=O)cc(-c3c(F)cccc3Cl)oc12)c1cscn1 [Compound 297]	B (EC1.5 1-25 μM)	> 200%
O=C(Nc1cccc2c(=O)cc(-c3cccc(F)c3Cl)oc12)c1cnccn1 [Compound 298]	B (EC1.5 1-25 μM)	< 200%
O=C(Nc1cccc2c(=O)cc(-c3cccc(F)c3Cl)oc12)c1cscn1 [Compound 299]	C (EC1.5>25 μM)	< 200%
O=C(Nc1cccc2c(=O)cc(-c3cc(F)ccc3Cl)oc12)c1cnccn1 [Compound 300]	C (EC1.5>25 μM)	< 200%
